From patent EP0506704B1, “USE OF ALKYL PHOSPHOLIPIDS AS ANTIVIRAL DRUGS, AS WELL AS NEW COMPOUNDS” (BOEHRINGER MANNHEIM GMBH, priority 1989, dated 1991)
Converted amounts (≈) assume the structure as drawn.

Test system: HIV
Test: Anti-HIV activity in cell culture: inhibition of HIV replication, virus in supernatant quantified by reinfection of human fetal lung cells
Type: cell-based
Conditions: Human immunodeficiency virus 1; chronically HIV-infected human fetal lung cells; concentration causing 50 % inhibition of virus replication
Description: Die Verbindungen der vorliegenden Erfindung weisen eine antivirale Wirksamkeit auf und können somit beispielsweise zur Behandlung von HIV-bedingten Krankheiten oder Infektionen eingesetzt werden. Der Nachweis der Anti-HIV-Wirksamkeit erfolgt in Zell- oder Gewebekulturen, wobei die direkte Hemmung der HIV-Replikation gemessen wird.
Zunächst erfolgt eine Behandlung von HIV-infizierten humanen T-Lymphomzellen bzw. HIV-infizierten humanen fetalen Lungenzellen mit der zu untersuchenden Verbindung in Verdünnungsreihe. Anschließend erfolgt eine Quantifizierung der Virusmenge im Überstand durch Neuinfektion von humanen fetalen Lungenzellen. Die Abnahme der entstandenen HIV-positiven Zellkolonien gilt als direktes Maß für die antivirale Wirksamkeit der untersuchten Verbindung.
In der folgenden Tabelle sind diejenigen Konzentrationen angegeben, die eine 50 %-ige Hemmung der Virusreplikation bewirken (IC₅₀-Werte).

| Compound | IC50 |
| --- | --- |
| CCCCCCCCCCCCSC(CCCCCCCCCCCC)COP(=O)([O-])OCC[N+](C)(C)C (stereo not drawn) [Beispiel 1, 2-Dodecylmercapto-tetradecyl-1-phosphorsäure-monocholinester] | 30 µg/mL (≈ 51.7 µM) |
| CCCCCCCCCCCCOC(CCCCCCCCCCCC)COP(=O)([O-])OCC[N+](C)(C)C (stereo not drawn) [Beispiel 2, 2-Dodecyloxytetradecvl-1-phosphorsäure-monocholinester] | 1 µg/mL (≈ 1.77 µM) |
| CCCCCCCCCCCCSCC(CCCCCCCCCCC)COP(=O)([O-])OCC[N+](C)(C)C (stereo not drawn) [Beispiel 3, 2-Dodecylmercaptomethyl-tridecyl-1-phosphorsäure-monocholinester] | 12 µg/mL (≈ 20.7 µM) |
